Results taken from article PMC12261321, “Inhibitors of the Bacterioferritin Ferredoxin Complex Dysregulate Iron Homeostasis and Kill and Biofilm-Embedded Cells” (ACS Infectious Diseases, 2025).
Converted amounts (≈) assume the structure as drawn.

Tests used:
[1] = Determination of compound aqueous solubility in M63 media; format: physicochemical; conditions: in M63 media at 35 °C
Procedure: Determination of Compound Aqueous Solubility. Compound stocks (100 mM in DMSO) were prepared from […]
powder and then further diluted with DMSO to prepare 20 mM working solutions, which were diluted as needed […]
in DMSO. 15 µL o f the DMSO solution was then d iluted to a final volume o f 1.0 mL in M63 media. Six solutions […]
were prepared for each compound, each with a distinct concentration and 1.5% DMSO (v/v). 700 µL of each […]
compound solution was transferred to a polystyrene 48-well plate (VWR), followed by acquisition of UV-vis […]
spectra (300 to 700 nm) with the aid of an Epoch 2 microplate reader (B i o Te k ). […]
Following the acquisition of UV-vis spectra, each of the wells in the plate was inspected under a […]
microscope for evidence of precipitation. Evidence of precipitation at any given concentration was determined by observing a shift in the baseline of the UV-vis spectra relative to the blank (M63 media) and/or evidence of visual precipitation with the aid of a micros cope. […]

A. baumannii 5075 [2] = experiment: Checkerboard assay; format: cell-based; conditions: 5075; for MIC: Acinetobacter baumannii; for Interaction of the antibiotic with KM-5–25: checkerboard
Procedure: To carry out the serial dilution from the highest compound concentration, a 150 μ L solution of higher concentration compound or antibiotic was mixed with 150 μ L of cell suspension containing […] Th e 96 well plate was in cubated for 20 hat 35 °C with continuous orbital shaking (205 cpm) in an Epoch2 microplate reader (BioTek), monitoring the growth by following the OD600. […] All assays were p erfo rmed in three biological replicates, each with three […] replicates. Checkerboard Assay. […] CFU/mL. […] in the vertical and hori zontal direction, respectivel y. Bacterial suspensions were […] escrib ed above fo r the MIC determination and added to the plates. […] The 96-well […] cubated for 20 h at 35 °C with continuous orbital shaking (205 cpm) in an Epoch2 microplate reader (BioTek), monitoring the growth by following the OD600. The MIC values of inhibitor and antibiotic were obtained from the corresponding row or column which contained only one component, whereas the remaining rows and columns were utilized for calculating the fractional inhibitory concentration index (FIC) with the aid of equation […] = […]2 Time Kill Assays. Time-kill assays were performed with A. baumannii 507 5 by the broth macro- dilution method […] An overnight culture was diluted to approximately 5 x10^5 CFU/mL in fresh […] media. […] DMSO, or by the addition of antibiotic dissolved in water and a small volume of DMSO to produce the desired S7

[3] = Stability in aqueous solution; format: physicochemical
recombinant Pa BfrB = molecular target: T1, recombinant Pa BfrB (Pseudomonas aeruginosa, UniProt Q9HY79); experiment: Dissociation constant (Kd), fluorescence quenching titration of apo Pa BfrB; format: binding, P. aeruginosa
T1 construct: made in house; host or cells: E. coli
T1 sequence (Q9HY79 whole entry): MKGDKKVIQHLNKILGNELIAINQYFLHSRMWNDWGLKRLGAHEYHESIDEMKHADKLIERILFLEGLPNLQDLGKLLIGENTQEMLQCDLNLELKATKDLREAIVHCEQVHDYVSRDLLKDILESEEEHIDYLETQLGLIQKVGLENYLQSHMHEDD
Procedure: Measurement of Dissociation Constant (Kd) R ecombinant Pa BfrB was expressed in E. coli and purified as previously reported.19 Apo-BfrB (devoid of heme) was utilized for the measurements to prevent heme-driven fluorescence quenching. A 0.5 mL solution contai ning 0.01 µM apo Pa-BfrB in PBS (pH = 7.4) containing0.5% DMSO was plac ed into a 1 cm quartz cuvette wh ere it was titrated with aliq uots of compound dissolved in a 50% (v/v) PBS/DMSO solution. The fluorescence quenching brought by the addition of each aliquot was monitored with the aid of an Agilent Cary Fluorometer , with excitation at 280 nm, emission at 320- 470 nm, 10 x10 nm slit width, and an average of 5 scans per spectrum. Th e binding assay included at least 8 aliquots spanning from ~ 0.1 […]
A control titration was carried out by titrati ng compound into PBS buffer. The Kd was cal culated by fitting the data to equation S4, w here Fb is the fraction bound and Fmax is the fraction bound at saturating compound concentration.
FFbb = FFmmmmmm ? [ccccmmccccccmmcc ]? (S4) […]

P. aeruginosa PAO1 = experiment: Half maximal inhibitory concentration (IC50), planktonic growth (CFU/mL); format: cell-based; conditions: M63 media, 18 h
Procedure: Measurement of Half Maximal Inhibitory Concentration (IC50). IC50 values were determined as reported earlier13 with some modifications. Compound stock solutions in DMSO (100 mM and 10 mM) were prepared from powd er. To prep are the cell susp ensions utilized in the measu rements, starter cultures o f P. aeru ginosa wer e diluted to an optical density at 600 nm (OD600) = 0.005 in fresh LB media (5 mL) and then cultured at 37°C and 220 rpm for 4 h prior to diluting to an OD600 = 0.0001 in M63. A small volume of compound stock solution w as further diluted in DMSO to 30 µL and then diluted in M63 cell suspension to a final volume of 2.0 mL. The resultant solution was placed in a well of a 96-well plate and then serially 2-fold diluted in M63 cell suspension to produce 6 distinct com pound concent rations, each with 1.5% DMSO. Th e plate was co ver ed and incubated for 18 h at 35 °C in a Synergy H1 plate reader (Biotek). The resultant cell cultures were serially diluted in PBS and then plated on PI Agar plates (PIA; BD biosciences) for counting viable cells (CFU/mL). The % growth was calculated from the ratio CFU/mL(t reat ed )/CFU/mL(untreated control). To calculate the IC50 values, the % growth was plotted as a function of compound concentration expressed as log[compound] ( µM), and fitted to equation S1 describing the sigmoid- shaped response pattern, 14 where b is the slope factor, max is the upper asymptote (plateau), and min is the lower asymptote. IC 50 values are the average and standard deviation from three independent experiments , each conducted with thr ee techni cal replicates.

A. baumannii 5075 [4] = experiment: MIC, broth microdilution in M63 media; format: cell-based
Procedure: (§1) Measurement of Minimum Inhibitory Concentrations (MIC). The MIC of compounds and select ed antibiotics against three strains of A. baumannii (5075, ATCC 17988, and ATCC 19606) were determined via the broth microdilution method according to Clinical and Laboratory Standard Instit ute (CLSI) guidelines,15 but culturing […]
(§2) To establish a 2-fold dilution series of compound, 985 μ L of diluted cells was mixed with 15 μ L of compound […]
(§3) dissolved in DMSO, such that the resultant solution had the highest concentration of compound or antibiotic tested and 1.5% DMSO. To carry out the serial dilution from the highest compound concentration, a 150 μ L solution of higher concentration compound or antibiotic was mixed with 150 μ L of cell suspension containing 1.5% DMSO in the wells of a 96 well plate.
(§4) Th e 96 well plate was in cubated for 20 hat 35 °C with continuous orbital shaking (205 cpm) in an Epoch2 microplate reader (BioTek), monitoring the growth by […]
(§5) following the OD600. […]
(§6) FFFFFF = MMMMMMAA iiii ccllccbbiiiicccciilliiMMMMMMAA+ MMMMMMBB iiii ccllccbbiiiicccciilliiMMMMMMBB S2 Time Kill Assays. Time-kill assays were performed with A. baumannii 507 5 by the broth macro- dilution method in M63- medium containing 1.5% DMSO. An overnight culture was diluted to approximately 5 x10^5 CFU/mL in fresh M63 media. The test solutions were prepared by adding compound (KM-5- 35, or KM-5- 25) dissolved in DMSO to 5 mL of diluted cell suspension to yield a solution of the desired compound concentration and 1.5% DMSO, or by the addition of antibiotic dissolved in water and a small volume of DMSO to produce the desired

A. baumannii ATCC 17978 = experiment: MIC, broth microdilution in M63 media; format: cell-based
Procedure: as §1, §2, §3, §4, §5, §6

A. baumannii ATCC 19606 = experiment: MIC, broth microdilution in M63 media; format: cell-based
Procedure: as §1, §2, §3, §4, §5, §6

Pa Bfr = conditions: earlier work, reference number not given; read-out: Kd of Pa Bfd binding to Pa Bfr; cited from earlier work
[5] = agent alone, KM-5–35 14 μg/mL = 40 μM

## Cc1cccc(O)c1CNc1cccc2c1C(=O)NC2=O [SB-15-171]
[1]
  Solubility: Unstable

## Cn1ccc2ccc(CNc3cccc4c3C(=O)NC4=O)cc21 [SB-17-114]
[1]
  Solubility: Not soluble

## C[C@@H](O)[C@H]1C(=O)N2C(C(=O)O)=C(S[C@@H]3CN[C@H](C(=O)N(C)C)C3)[C@H](C)[C@H]12 [meropenem, reference compound]
A. baumannii 5075 [2]; [5]
  MIC: 2 µg/mL

## O=C1NC(=O)c2c(NCc3cccc4c3CCO4)cccc21 [SB-17-110]
[1]
  Solubility: Not soluble

## O=C1NC(=O)c2c(NCc3cc(O)ccc3O)cccc21 [EB-5-93]
[1]
  Solubility: Unstable
[3]
  stability in aqueous solution: unstable in aqueous solution

## O=C1NC(=O)c2c(NCc3ccc(O)cc3O)cccc21 [BN-16-69]
[1]
  Solubility: Unstable
[3]
  stability in aqueous solution: unstable in aqueous solution

## O=C1NC(=O)c2c(NCc3ccc4occc4c3)cccc21 [SB-17-109]
[1]
  Solubility: Not soluble

## O=C(O)c1cn(C2CC2)c2cc(N3CCNCC3)c(F)cc2c1=O [ciprofloxacin, reference compound]
A. baumannii 5075 [2]; [5]
  MIC: 128 µg/mL

## Cn1ccnc1CNc1cccc2c1C(=O)NC2=O [SB-17-95]
[1]
  solubility at 4 h: 100 µM (≈ 25.6 µg/mL)
Recombinant Pa BfrB
  Kd: 57 ± 6 µM
P. aeruginosa PAO1; planktonic cells
  IC50, P. aeruginosa PAO1: Not active
A. baumannii 5075 [4]; 20 h
  MIC, A. baumannii 5075: Not active
A. baumannii ATCC 17978; 20 h
  MIC, A. baumannii 17978: Not active
A. baumannii ATCC 19606; 20 h
  MIC, A. baumannii 19606: Not active

## NC[C@H]1O[C@H](O[C@H]2[C@H](O)[C@@H](O[C@H]3O[C@H](CO)[C@@H](O)[C@H](N)[C@H]3O)[C@H](N)C[C@@H]2N)[C@H](N)C[C@@H]1O [tobramycin, reference compound]
A. baumannii 5075 [2]; [5]
  MIC: 512 µg/mL

## O=C1NC(=O)c2c(NCc3ccc4[nH]ccc4c3)cccc21 [SB-17-16]
[1]
  Solubility: Not soluble

## colistin [reference compound]
A. baumannii 5075 [2]; [5]
  MIC alone: 1 µg/mL
A. baumannii 5075 [2]
  Interaction of the antibiotic with KM-5–25: synergy

## O=C1NC(=O)c2c(NCc3c(O)cccc3O)cccc21 [BN-16-70]
[1]
  Solubility: Unstable
[3]
  stability in aqueous solution: unstable in aqueous solution

## Cc1ccc(O)c(CNc2ccc(Br)c3c2C(=O)NC3=O)c1 [SB-16-122]
[1]
  solubility at 4 h: 40 µM (≈ 14.4 µg/mL)
Recombinant Pa BfrB
  Kd: 5 ± 1 µM
P. aeruginosa PAO1; planktonic cells
  IC50: 19 ± 4 µM
A. baumannii 5075 [4]; 20 h
  MIC: 20 µM (≈ 7.22 µg/mL)
A. baumannii ATCC 17978; 20 h
  MIC: 20 µM (≈ 7.22 µg/mL)
A. baumannii ATCC 19606; 20 h
  MIC: 20 µM (≈ 7.22 µg/mL)

## O=C1NC(=O)c2c(NCC3CCOCC3)cccc21 [SB-16-237]
[1]
  solubility at 4 h: 100 µM (≈ 26 µg/mL)
Recombinant Pa BfrB
  Kd: 42 ± 10 µM
P. aeruginosa PAO1; planktonic cells
  IC50, P. aeruginosa PAO1: Not active
A. baumannii 5075 [4]; 20 h
  MIC: > 100 µM
A. baumannii ATCC 17978; 20 h
  MIC: > 100 µM
A. baumannii ATCC 19606; 20 h
  MIC: > 100 µM

## C[C@@H](O)[C@H]1C(=O)N2C(C(=O)O)=C(SCCN=CN)C[C@H]12 [imipenem, reference compound]
A. baumannii 5075 [2]; [5]
  MIC: 1 µg/mL
A. baumannii 5075 [2]
  Interaction of the antibiotic with KM-5–25: additive

## O=C1NC(=O)c2c(NCc3cc(O)c(Br)cc3O)cccc21 [SB-16-186]
[1]
  Solubility: Unstable

## O=C1NC(=O)c2c(NCc3cccc4[nH]ccc34)cccc21 [SB-17-75]
[1]; M63 media with 1.5% DMSO, 35 °C, aqueous buffer, kinetic from dmso stock
  solubility at 4 h: 60 µM (≈ 17.5 µg/mL)
Recombinant Pa BfrB
  Kd: 15 ± 2 µM
P. aeruginosa PAO1; Pseudomonas aeruginosa, PAO1, planktonic cells
  IC50: 32 ± 13 µM
A. baumannii 5075 [4]; Acinetobacter baumannii, 5075, 20 h
  MIC: 30 µM (≈ 8.74 µg/mL)
A. baumannii ATCC 17978; Acinetobacter baumannii, ATCC17978, 20 h
  MIC: 60 µM (≈ 17.5 µg/mL)
A. baumannii ATCC 19606; Acinetobacter baumannii, ATCC19606, 20 h
  MIC: 30 µM (≈ 8.74 µg/mL)

## O=C1NC(=O)c2c(NCc3ccc4c(c3)CCO4)cccc21 [SB-17-98]
[1]
  Solubility: Not soluble

## CC(C)(O/N=C(\C(=O)N[C@@H]1C(=O)N2C(C(=O)[O-])=C(C[n+]3ccccc3)CS[C@H]12)c1csc(N)n1)C(=O)O [ceftazidime, reference compound]
A. baumannii 5075 [2]; [5]
  MIC: 256 µg/mL

B1: Pa Bfd: Bfr associated ferredoxin that binds Pa Bfr (protein, UniProt Q9HY80 1-73, looked up)
Bacterioferritin-associated …: MYVCLCQGVTDNQIRDAIYEGCCSYREVREATGVGTQCGKCACLAKQVVRETLNDLQSAQPVPAFGTTAFVAA
Pa Bfr
  Kd: 4.7 µM
